Assay results reported in patent US11142527B2, “Dihydropyrimidine compounds and uses thereof in medicine” (SUNSHINE LAKE PHARMA CO., LTD., priority 2017, dated 2021).

Legend:
[1] = system: HBV; test: Test of anti HBV activity in vitro (viral DNA by qPCR); type: cell-based; conditions: Hepatitis B virus; HepG2.2.15 cells, viral DNA in cell culture supernatant by qPCR; read-out: EC50 values of the compound of the invention on viral replication
Summary of the method: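 HepG2.2.15 cells (integrated HBV genome) were grown to confluence, then treated with compound in 4-fold dilutions from 4 μM final (0.5% DMSO). Secreted viral DNA in supernatant was quantified by SYBR qPCR against an HBV plasmid standard curve; EC50 from four-parameter nonlinear regression of concentration versus copy number.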

[2] = Cytotoxicity test with CellTiter Glo; type: cell-based; conditions: human, HepG2.2.15 cells, highest concentration 150 μM, read-out: CC50 values of the compounds of the invention
Summary of the method: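 HepG2.2.15 cells (3000/well) exposed to serially diluted compound, highest final concentration 150 μM, for 4 days at 37 °C. Viability read by CellTiter Glo, cytotoxicity % taken relative to DMSO controls, and CC50 obtained by four-parameter nonlinear regression.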

[3] = system: HBV; conditions: Science, 2003, 299, 893-896; cited from earlier work

Compound | EC50 [1] [µM] | CC50 at 4 days [2] [µM] | IC50 [3] [µM]
COC(=O)C1=C(CN2CCN3C(=O)N(c4ccc(Sc5ccc(OC(C)C)cc5)cc4)C[C@@H]3C2)NC(c2nccs2)=N[C@H]1c1ccc(F)cc1Cl [Example 105, (R)-methyl 4-(2-chloro-4-fluorophenyl)-6-(((S)-2-(4-((4-isopropoxyphenyl)thio)phenyl)-3-oxohexahydroimidazo[1,5-a]pyrazin-7(1H)-yl)methyl)-2-(thiazol-2-yl)-1,4-dihydropyrimidine-5-carboxylate] | 0.029 | > 150 | –
COC(=O)C1=C(CN2CCN3C(=O)N(c4ccc(Oc5ccc(S(C)(=O)=O)cc5)cc4)C[C@@H]3C2)NC(c2nccs2)=N[C@H]1c1ccc(F)cc1Cl [Example 106, (R)-methyl 4-(2-chloro-4-fluorophenyl)-6-(((S)-2-(4-(4-(methylsulfonyl)phenoxy)phenyl)-3-oxohexahydroimidazo[1,5-a]pyrazin-7(1H)-yl)methyl)-2-(thiazol-2-yl)-1,4-dihydropyrimidine-5-carboxylate] | 0.0062 | > 150 | –
COC(=O)C1=C(CN2CCN3C(=O)N(c4ccc(-c5nc(C6CC6)c[nH]5)cc4)C[C@@H]3C2)NC(c2nccs2)=N[C@H]1c1ccc(F)cc1Cl [Example 111, (R)-methyl 4-(2-chloro-4-fluorophenyl)-6-(((S)-2-(4-(4-cyclopropyl-1H-imidazol-2-yl)phenyl)-3-oxohexahydroimidazo[1,5-a]pyrazin-7(1H)-yl)methyl)-2-(thiazol-2-yl)-1,4-dihydropyrimidine-5-carboxylate] | 0.0075 | > 150 | –
COC(=O)C1=C(CN2CCN3C(=O)N(c4ccc(OC5CCC(C(=O)O)CC5)cc4F)C[C@@H]3C2)NC(c2nccs2)=N[C@H]1c1ccc(F)cc1Cl (stereo partly drawn) [Example 112, 4-(4-((S)-7-(((R)-6-(2-chloro-4-fluorophenyl)-5-(methoxycarbonyl)-2-(thiazol-2-yl)-3,6-dihydropyrimidin-4-yl)methyl)-3-oxohexahydroimidazo[1,5-a]pyrazin-2(3H)-yl)-3-fluorophenoxy)cyclohexane carboxylic acid] | 0.0154 | > 150 | –
COC(=O)C1=C(CN2CCN3C(=O)N(c4ccc(F)c(-c5ccc(C(=O)O)cc5)c4)C[C@@H]3C2)NC(c2nccs2)=N[C@H]1c1ccc(F)cc1Cl [Example 114, 5′-((S)-7-(((R)-6-(2-chloro-4-fluorophenyl)-5-(methoxycarbonyl)-2-(thiazol-2-yl)-3,6-dihydropyrimidin-4-yl)methyl)-3-oxohexahydroimidazo[1,5-a]pyrazin-2(3H)-yl)-2′-fluoro-[1,1′-biphenyl]-4-carboxylic acid] | 0.0277 | > 150 | –
COC(=O)C1=C(CN2CCN3C(=O)N(c4ccc(-c5cc(C(=O)O)ccc5F)cc4)C[C@@H]3C2)NC(c2nccs2)=N[C@H]1c1ccc(F)cc1Cl [Example 116] | 0.0199 | > 150 | –
COC(=O)C1=C(CN2CCN3C(=O)N(c4cc(F)cc(-c5ccc(C(=O)O)cc5)c4)C[C@@H]3C2)NC(c2nccs2)=N[C@H]1c1ccc(F)cc1Cl [Example 117, 3′-((S)-7-(((R)-6-(2-chloro-4-fluorophenyl)-5-(methoxycarbonyl)-2-(thiazol-2-yl)-3,6-dihydroprimidin-4-yl)methyl)-3-oxohexahydroimidazo[1,5-a]pyrazin-2(3H)-yl)-5′-fluoro-[1,1′-biphenyl]-4-carboxylic acid] | 0.0188 | > 150 | –
COC(=O)C1=C(CN2CCN3C(=O)N(c4cc(F)cc(-c5ccc(C(=O)O)cc5F)c4)C[C@@H]3C2)NC(c2nccs2)=N[C@H]1c1ccc(F)cc1Cl [Example 118, 3′-((S)-7-(((R)-6-(2-chloro-4-fluorophenyl)-5-(methoxycarbonyl)-2-(thiazol-2-yl)-3,6-dihydropyrimidin-4-yl)methyl)-3-oxohexahydroimidazo[1,5-a]pyrazin-2(3H)-yl)-2,5′-difluoro-[1,1′-biphenyl]-4-carboxylic acid] | 0.0089 | > 150 | –
COC(=O)C1=C(CN2CCN3C(=O)N(c4cc(F)cc(-c5ccc(C(=O)O)c(F)c5)c4)C[C@@H]3C2)NC(c2nccs2)=N[C@H]1c1ccc(F)cc1Cl [Example 119] | 0.0156 | > 150 | –
COC(=O)C1=C(CN2CCN3C(=O)N(c4ccc(-c5ccc(C(=O)O)cc5)nc4)C[C@@H]3C2)NC(c2nccs2)=N[C@H]1c1ccc(F)cc1Cl [Example 122, 4-(5-((S)-7-(((R)-6-(2-chloro-4-fluorophenyl)-5-(methoxycarbonyl)-2-(thiazol-2-yl)-3,6-dihydropyrimidin-4-yl)methyl)-3-oxohexahydroimidazo[1,5-a]pyrazin-2(3H)-yl)pyridin-2-yl)benzoic acid] | 0.0456 | > 150 | –
COC(=O)C1=C(CN2CCN3C(=O)N(c4ccnc(-c5ccc(C(=O)O)cc5)c4)C[C@@H]3C2)NC(c2nccs2)=N[C@H]1c1ccc(F)cc1Cl [Example 123, 4-(4-((S)-7-(((R)-6-(2-chloro-4-fluorophenyl)-5-(methoxycarbonyl)-2-(thiazol-2-yl)-3,6-dihydropyrimidin-4-yl)methyl)-3-oxohexahydroimidazo[1,5-a]pyrazin-2(3H)-yl)pyridin-2-yl)benzoic acid] | 0.0379 | > 150 | –
COC(=O)C1=C(CN2CCN3C(=O)N(c4ccc(-c5ccc(C(C)(C)C(=O)O)cc5)nc4)C[C@@H]3C2)NC(c2nccs2)=N[C@H]1c1ccc(F)cc1Cl [Example 125, 2-(4-(5-((S)-7-(((R)-6-(2-chloro-4-fluorophenyl)-5-(methoxycarbonyl)-2-(thiazol-2-yl)-3,6-dihydropyrimidin-4-yl)methyl)-3-oxohexahydroimidazo[1,5-a]pyrazin-2(3H)-yl)pyridin-2-yl)phenyl)-2-methylpropanoic acid] | 0.021 | > 150 | –
COC(=O)C1=C(CN2CCN3C(=O)N(c4ccc(-c5ccc(CCC(=O)O)cc5)cc4)C[C@@H]3C2)NC(c2nccs2)=N[C@H]1c1ccc(F)cc1Cl [Example 126, 3-(4′-((S)-7-(((R)-6-(2-chloro-4-fluorophenyl)-5-(methoxycarbonyl)-2-(thiazol-2-yl)-3,6-dihydropyrimidin-4-yl)methyl)-3-oxohexahydroimidazo[1,5-a]pyrazin-2(3H)-yl)-[1,1′-biphenyl]-4-yl)propanoic acid] | 0.0067 | > 150 | –
COC(=O)C1=C(CN2CCN3C(=O)N(c4nc(-c5ccc(CCC(=O)O)cc5)cs4)C[C@@H]3C2)NC(c2nccs2)=N[C@H]1c1ccc(F)cc1Cl [Example 135, 3-(4-(2-((S)-7-(((R)-6-(2-chloro-4-fluorophenyl)-5-(methoxycarbonyl)-2-(thiazol-2-yl)-3,6-dihydropyrimidin-4-yl)methyl)-3-oxohexahydroimidazo[1,5-a]pyrazin-2(3H)-yl)thiazol-4-yl)phenyl)propanoic acid] | 0.0065 | > 150 | –
COC(=O)C1=C(CN2CCN3C(=O)N(c4nc(-c5ccc(C(=O)O)cc5F)cs4)C[C@@H]3C2)NC(c2nccs2)=N[C@H]1c1ccc(F)cc1Cl [Example 136, 4-(2-((S)-7-(((R)-6-(2-chloro-4-fluorophenyl)-5-(methoxycarbonyl)-2-(thiazol-2-yl)-3,6-dihydropyrimidin-4-yl)methyl)-3-oxohexahydroimidazo[1,5-a]pyrazin-2(3H)-yl)thiazol-4-yl)-3-fluorobenzoic acid] | 0.0201 | > 150 | –
COC(=O)C1=C(CN2CCN3C(=O)N(c4nc(-c5ccc(C(=O)O)c(F)c5)cs4)C[C@@H]3C2)NC(c2nccs2)=N[C@H]1c1ccc(F)cc1Cl [Example 137, 4-(2-((S)-7-(((R)-6-(2-chloro-4-fluorophenyl)-5-(methoxycarbonyl)-2-(thiazol-2-yl)-3,6-dihydropyrimidin-4-yl)methyl)-3-oxohexahydroimidazo[1,5-a]pyrazin-2(3H)-yl)thiazol-4-yl)-2-fluorobenzoic acid] | 0.01 | > 150 | –
COC(=O)C1=C(CN2CCN3C(=O)N(c4nc(-c5cc(F)cc(C(=O)O)c5)cs4)C[C@@H]3C2)NC(c2nccs2)=N[C@H]1c1ccc(F)cc1Cl [Example 138, 3-(2-((S)-7-(((R)-6-(2-chloro-4-fluorophenyl)-5-(methoxycarbonyl)-2-(thiazol-2-yl)-3,6-dihydropyrimidin-4-yl)methyl)-3-oxohexahydroimidazo[1,5-a]pyrazin-2(3H)-yl)thiazol-4-yl)-5-fluorobenzoic acid] | 0.034 | > 150 | –
COC(=O)C1=C(CN2CCN3C(=O)N(c4nc(-c5cccc(C(=O)O)c5)cs4)C[C@@H]3C2)NC(c2nccs2)=N[C@H]1c1ccc(F)cc1Cl [Example 139, 3-(2-((S)-7-(((R)-6-(2-chloro-4-fluorophenyl)-5-(methoxycarbonyl)-2-(thiazol-2-yl)-3,6-dihydropyrimidin-4-yl)methyl)-3-oxohexahydroimidazo[1,5-a]pyrazin-2(3H)-yl)thiazol-4-yl)benzoic acid] | 0.0107 | > 150 | –
Nc1ccn([C@@H]2CS[C@H](CO)O2)c(=O)n1 [lamivudine] | – | – | 0.3
